Data taken from patent publication US20140343095A1, “Methods of Diagnosing and Treating Multiple Sclerosis” (The Brigham and Women's Hospital, Inc., priority 2009, published 2014).

Tests used:
[1] = tested on: PARP-1; experiment: FACS PARP-1 activity in innate and adaptive immune cells treated with HSP60 or 15-HC; type: cell-based, human; conditions: HSP60 1, 5, 10 ng/ml, 15-HC 1, 5, 10 ug/ml
Description: FIGS. 17A-C are bar graphs showing that 15-HC, but not HSP60, activates PARP-1 in cells of the innate immune system. Mean PARP-1 activity as determined by FACS in classical monocytes (17A), inflammatory monocytes (17B) and dendritic cells (17C) of healthy controls (HC) treated with activated with HSP60, 15-HC or left untreated. The data are shown as mean fluorescence intensity (MFI)±SD of 5 samples/group.
FIGS. 18A-C are bar graphs showing that both 15-HC and HSP60 activate PARP-1 in cells of the adaptive immune system. Mean PARP-1 activity as determined by FACS in CD4+ T cells (18A), CD8+ T cells (18B) and B cells (18C) of healthy controls (HC) treated with activated with HSP60, 15-HC or left untreated. The data are shown as mean fluorescence intensity (MFI)±SD of 5 samples/group.
A new FACS-based method was developed to detect PARP-1 activation based on the intracellular detection of the PARP-1 product PAR with specific antibodies. Briefly, the cells were incubated with antibodies to CD16/32 to block unspecific antibody binding, and then stained for surface markers. […] The samples were then analyzed by FACS.
To investigate whether the increased activity of the TLR2/PARP-1 axis in SPMS patients resulted from increased levels of TLR2 ligands, the levels of 15-HC and HSP60 were measured in serum samples from healthy controls, RRMS and SPMS patients. […]

[2] = tested on: microglia, macrophages or astrocytes; experiment: TNF-α, CCL-2 and NO secretion by microglia, macrophages or astrocytes; type: cell-based, mouse; conditions: microglia, macrophages or astrocytes incubated with 15-HC
Procedure: FIGS. 4A-D show the results of activation of microglia, macrophages and astrocytes by 15-HC. 4A, a bar graph showing PARP-1 activity in a cell-free system where recombinant PARP-1 was incubated with DNA which as been pretreated with 15-HC or 7-KC. Non-pretreated DNA was used as a negative control and ssb-DNA as a positive control. Data is shown as Mean±SEM. 4B, a pair of bar graphs showing PARP-1 activity measured in microglia, macrophages or astrocytes incubated with 15-HC or 7-KC. The data is shown as the fold of change between vehicle and lipid-treated cells (Mean±SEM). 4C, a pair of bar graphs showing percent inhibition of PARP-1 activity in microglia, macrophages or astrocytes activated with 15-HC or 7-KC […] in the presence of 5-AIQ. 4D, a table showing levels of TNF-α, CCL-2 and NO secretion by 15-HC or 7-KC treated microglia, macrophages or astrocytes (Mean±SEM).
The effect of 15-HC on the activity of cellular PARP-1 was then investigated. […] Thus, 15-HC activates microglia, macrophages and astrocytes through a PARP-1-dependent mechanism.

[3] = target: T1, PARP-1 (Homo sapiens, UniProt P09874); experiment: PARP-1 enzymatic activity in human PBMCs (PARP HT Universal Colorimetric Kit); type: cell-based; parameters: endogenous in cells; host or cells: human PBMCs / monocytes / dendritic cells / T and B cells from healthy controls and MS patients; conditions: healthy controls, 1 ug/ml 15-HC
T1 sequence (P09874 whole entry): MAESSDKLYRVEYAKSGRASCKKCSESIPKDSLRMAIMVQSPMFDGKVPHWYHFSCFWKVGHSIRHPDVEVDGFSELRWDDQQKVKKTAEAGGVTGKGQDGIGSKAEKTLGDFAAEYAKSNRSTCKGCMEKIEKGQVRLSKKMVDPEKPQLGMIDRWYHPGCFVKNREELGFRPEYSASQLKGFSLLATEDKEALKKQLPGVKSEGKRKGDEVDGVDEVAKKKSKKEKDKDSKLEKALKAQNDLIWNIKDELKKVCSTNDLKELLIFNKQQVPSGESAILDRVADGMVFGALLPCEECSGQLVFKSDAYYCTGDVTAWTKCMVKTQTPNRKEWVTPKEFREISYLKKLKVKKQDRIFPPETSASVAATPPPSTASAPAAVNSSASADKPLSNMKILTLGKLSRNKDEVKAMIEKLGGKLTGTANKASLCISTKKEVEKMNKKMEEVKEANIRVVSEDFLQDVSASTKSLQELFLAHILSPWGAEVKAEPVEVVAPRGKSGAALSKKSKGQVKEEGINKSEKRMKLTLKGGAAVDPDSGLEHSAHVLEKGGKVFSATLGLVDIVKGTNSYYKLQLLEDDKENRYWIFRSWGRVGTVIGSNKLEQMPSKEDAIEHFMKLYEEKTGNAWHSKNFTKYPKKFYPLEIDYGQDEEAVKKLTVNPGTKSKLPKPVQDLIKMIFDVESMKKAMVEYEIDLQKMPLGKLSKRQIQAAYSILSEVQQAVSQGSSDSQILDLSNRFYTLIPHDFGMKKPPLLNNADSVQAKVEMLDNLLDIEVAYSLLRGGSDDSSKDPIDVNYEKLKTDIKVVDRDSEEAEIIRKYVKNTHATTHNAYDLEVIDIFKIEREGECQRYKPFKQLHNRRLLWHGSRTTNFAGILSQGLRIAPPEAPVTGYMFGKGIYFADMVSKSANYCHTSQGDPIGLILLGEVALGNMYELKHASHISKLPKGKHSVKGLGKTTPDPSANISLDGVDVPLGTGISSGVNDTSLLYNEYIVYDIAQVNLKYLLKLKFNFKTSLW
Procedure: PARP-1 enzymatic activity (10A) and TNFalpha and CCL2 (10B) of PBMCs incubated with 15-HC alone, or in combination with AIQ, blocking antibodies to TLR2 or IC control.
To investigate whether the TLR2/PARP-1 axis is functional in human we activated PBMCs from healthy controls with 15-HC, in the presence or not of PARP-1 or TLR2 inhibitors.

[4] = target: T1, PARP-1; experiment: FACS-based detection of PARP-1 activity (PAR staining) in human monocytes / PBMCs; type: cell-based; parameters: endogenous in cells; host or cells: human PBMCs / monocytes / dendritic cells / T and B cells from healthy controls and MS patients
Procedure: FIGS. 11A-B are show the results of FACS-based detection of PARP-1 activity. 11A. a set of five histograms showing PAR staining (as detected by FACS) of PBMCs incubated with 15-HC alone, or in combination with AIQ, blocking antibodies to TLR2 (TLR2 BL), or IC control (TLR2 IC). 11B, a line graph showing the correlation of PAR staining as detected by FACS with PARP-1 enzymatic activity detected on PBMCs activated with different concentration of 15-HC.
14A is a set of fifteen histograms showing PAR staining of PBMCs taken from HC (left column), RRMS (center column) or SPMS (right column) patients and unstimulated (top row) or activated with 15-HC alone (second row), or in combination with AIQ (third row), blocking antibodies to TLR2 (fourth row) or IC control (bottom row). 14B is a bar graph showing the mean fluorescence intensity (MFI)±SD of 5 samples/group from the histograms in 14A.
15A is a set of 24 histograms showing PAR staining of PBMCs taken from HC (left column), RRMS (center column) or SPMS (right column) patients and unstimulated (top row) or activated with pgLPS (second row), polyIC (third row), ecLPS (fourth row), flagellin (row 5), imiquimod (row 6), ssRNA (row 7) or CpG (row 8). 15B is a bar graph showing the mean fluorescence intensity (MFI)±SD of 5 samples/group from the histograms in […].
A new FACS-based method was developed to detect PARP-1 activation based on the intracellular detection of the PARP-1 product PAR with specific antibodies. Briefly, the cells were incubated with antibodies to CD16/32 to block unspecific antibody binding, and then stained for surface markers. After washing, the cells were permeabilized with Fix/Perm (BD), and then stained with rabbit anti-PAR antibodies (or control rabbit IgG) for 30′ at 4° C., followed by anti-rabbit PE for 30′ at room temperature. The samples were then analyzed by FACS.

[5] = target: PARP-1 (Mus musculus, UniProt P11103); experiment: Cellular PARP-1 activity in microglia, macrophages or astrocytes; type: cell-based; parameters: host or cells: C8B4 microglia, C8-D1A astrocytes, Raw 264.7 macrophages
PARP-1 (Mus musculus, UniProt P11103), sequence (P11103 whole entry): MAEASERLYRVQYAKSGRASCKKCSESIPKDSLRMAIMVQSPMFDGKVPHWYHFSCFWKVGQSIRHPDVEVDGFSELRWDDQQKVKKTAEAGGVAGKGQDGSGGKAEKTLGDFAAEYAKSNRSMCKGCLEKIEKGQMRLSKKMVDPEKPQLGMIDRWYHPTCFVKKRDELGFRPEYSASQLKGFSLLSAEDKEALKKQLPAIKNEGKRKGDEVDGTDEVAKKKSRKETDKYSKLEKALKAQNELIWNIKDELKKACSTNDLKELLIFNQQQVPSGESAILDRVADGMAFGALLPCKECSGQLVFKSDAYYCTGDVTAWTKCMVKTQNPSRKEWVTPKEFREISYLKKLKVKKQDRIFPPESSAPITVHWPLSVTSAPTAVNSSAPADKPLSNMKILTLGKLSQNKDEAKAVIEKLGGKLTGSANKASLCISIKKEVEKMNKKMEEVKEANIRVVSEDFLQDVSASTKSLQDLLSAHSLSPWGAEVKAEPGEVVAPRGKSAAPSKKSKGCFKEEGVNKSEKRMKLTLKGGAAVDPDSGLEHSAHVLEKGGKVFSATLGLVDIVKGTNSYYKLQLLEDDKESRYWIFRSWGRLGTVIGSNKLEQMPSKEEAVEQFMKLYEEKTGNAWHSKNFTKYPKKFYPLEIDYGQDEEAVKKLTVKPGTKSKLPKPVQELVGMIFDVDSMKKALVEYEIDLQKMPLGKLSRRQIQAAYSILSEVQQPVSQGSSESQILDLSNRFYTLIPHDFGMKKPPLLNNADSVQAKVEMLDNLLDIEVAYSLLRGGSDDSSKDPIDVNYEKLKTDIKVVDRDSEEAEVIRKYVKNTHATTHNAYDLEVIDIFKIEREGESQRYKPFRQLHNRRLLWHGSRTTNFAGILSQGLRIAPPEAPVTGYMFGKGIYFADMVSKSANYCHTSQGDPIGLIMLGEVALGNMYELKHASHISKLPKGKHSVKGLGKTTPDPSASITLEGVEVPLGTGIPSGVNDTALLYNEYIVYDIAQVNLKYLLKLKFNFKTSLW
Procedure: 5A, a bar graph showing the time course of microglial PARP-1 activation by 15-oxysterols or 7-KC. PARP-1 activity is shown as Mean±SEM. […] (Mean±SEM) 5C, a bar graph showing activation of microglial PARP-1 by 15-HC in the presence of kinase inhibitors (Mean±SEM).
6A, a set of three bar graphs showing PARP-1 activity in microglia, macrophages or astrocytes activated with 15-HC in the presence of blocking antibodies to TLR2 or TLR4, or isotype controls (Mean±SEM).
PARP-1 activity was measured using PARP HT Universal Colorimetric Kit (Trevigen, MD, USA), following manufacturer instructions.
Cells were cultured with DMEM supplemented with 10% fetal bovine serum, 2 mM L-glutamine, 25 mM HEPES, and 1 mM sodium pyruvate. Cells in logarithmic growth were treated with 1 μg/ml of 15-HC for 1, 5, 15, and 30 minutes in serum-free medium. Blocking antibodies (Ebioscience, San Diego, Calif., USA) were added in some experiments at a final concentration of 10 ug/ml.

## 15-hydroxycholestene [15-HC]
[1]; CD4+ T cells, CD8+ T cells, B cells of healthy controls
  PARP-1 activation in cells of the adaptive immune system (FIG. 18): could activate
[1]; classical monocytes, inflammatory monocytes, dendritic cells of healthy controls
  PARP-1 activation in cells of the innate immune system (FIG. 17): only 15-HC could activate
[2]
  secretion of NO, CCL-2 and TNF-α: resulted in the secretion
[3]
  PARP-1 enzymatic activity in human PBMCs: results in the activation
[4]; all three experimental groups
  inhibition of 15-HC-induced PARP-1 activation in monocytes from healthy controls, RRMS and SPMS patients: could be inhibited
[4]; human monocytes activated by 15-HC
  PAR staining (FACS): significant increase
[5]; macrophages or microglia
  incubation time resulting in activation of PARP-1: 5 min
[5]; macrophages, microglia or astrocytes
  activation of cellular PARP-1: dose-dependent activation
